Data on two molecules can be found in patent publication US6921531B2, “Administering bifunctional molecules containing a drug moiety and presenter protein ligand for therapy” (The Board of Trustees of the Leland Stanford Junior …, priority 1998, dated 2005).

“Also recorded” adds a separate entry of the source. Read-outs that look alike come from different tables or passages of the source.

Test [1] has as its target T1, Fyn SH2 domain (Homo sapiens, UniProt P06241).
T1 construct: The Fyn, Lck and PLC SH2 domains were expressed in bacteria as GST fusion proteins; GST (cleaved yes); made in house; host or cells: bacteria
Description: Competition binding assay of radioactive Fyn SH2 domain to pYEEI beads. The conditions noted are these: for Effect of FKBP12 on affinity for the Fyn SH2 domain: 1.0 µM ligand plus FKBP12 (0.25-4.0 µM or 2.0 µM). An excerpt:
The pYEEI peptide was coupled to Affi-Gel 10 beads (Biorad) via its amino-group. The Fyn, Lck and PLC SH2 domains were expressed in bacteria as GST fusion proteins. The linker between the GST protein and the SH2 domain contained a thrombin cleavage site and a protein kinase A (PKA) phosphorylation site. The fusion protein on glutathione beads was radioactively labeled at the PKA phosphorylation site using PKA (Sigma). After extensive washing of the beads, the radioactive SH2 domain was released by cleavage with thrombin (Sigma). In a typical binding assay, 7.5 L of a 1:1 peptide bead slurry were incubated with the radioactive SH2 domain (200 nM) for 2 hours in 100 L of binding buffer (20 mM Tris pH7.2; 150 mM NaCl). In order to separate the radioactive protein bound to the beads, the binding reaction was transfered into a PCR tube (USA Scientific Plastic), whose bottom had been punctured with a 26gauge needle. The PCR tube was placed in a 0.5 mL Eppendorf tube which in turn was placed in a regular 1.5 mL Eppendorf tube. The tubes were spun for 1 second at maximal speed in an Eppendorf centrifuge resulting in the separation of the beads remaining in the PCR tube and the supernatant, which was collected in the 0.5 ml Eppendorf tube. The beads were resuspended in […] PBS and the radioactivity was counted in a liquid scintillation counter after addition of 3 ml scintillation fluid. The radioactivity remaining in the 100 L supernatant was counted in the same way. It was determined that under the conditions described 65% Fyn, 25% PLC and 15%Lck SH2 domain were bound to the beads. By increasing the amount of beads, up to 80% Fyn, 40% PLC and 25% Lck could be bound. These amounts reflect the active fraction of SH2 domains in the different protein preparations.
In order to determine the relative affinity of the SH2 domains for FKpYEEI or SLFpYEEI alone and FKpYEEI or SLFpYEEI bound to FKBP12 and FKBP52, the following competition assay was used. Radioactive SH2 domains were incubated with pYEEI peptide beads and FKpYEEI or SLFpYEEI in the presence or absence of the respective FKBP proteins. FKpYEEI and FKpYEEI/FKBP as well as SLFpYEEI and SLFpYEEI/FKBP compete for binding of the SH2 domains with the peptide beads. The higher the affinity of the FKpYEEI or SLFpYEEI ligand in the supernatant, the less SH2 domain is bound to the peptide beads (FIG. 3).
Using the competition binding assay described above, FKpYEEI was added to peptide beads and the Fyn SH2 domain in the presence of increasing concentrations of FKBP52 (FIG. 4). In this assay, in 100 L binding reactions, radioactively labeled Fyn SH2 domain (200 nM) was incubated with 7.5 L of a 1:1 pYEEI bead slurry. No FKpYEEI, 1.0 M FKpYEEI or 1.0 M FKpYEEI plus increasing concentrations of FKBP52 (0.25-4.0 M) were added. The binding reactions were rotated at room temperature for 2 hours. The supernatant was separated from the beads by spinning the binding reactions in punctured PCR tubes for 1 sec in an Eppendorf centrifuge at maximal speed. The beads were resuspended in 100 1 PBS and the radioactivity bound to the beads was counted in a liquid scintillation vial for 30 sec. The radioactivity bound to the beads in the presence of only the Fyn SH2 domain was plotted as 100% of maximal Fyn SH2 domain binding to pYEEI beads. The radioactivity bound in the presence of FKpYEEI and FKBP52 was calculated as the percentage of maximal Fyn SH2 domain binding. Every binding reaction was done in triplicate. The data points reflect the average of the three binding reactions. The error bars indicate the standard error.
In this assay, in 100 L binding reactions, radioactively labeled Fyn SH2 domain (200 nM) was incubated with 7.5 L of a 1:1 pYEEI bead slurry. […] The binding reactions were rotated at room temperature for 2 hours, centrifuged and analysed as described above. […]

Test [2] has as its target T1, Fyn SH2 domain. In words: Binding constants (Kd) for Fyn SH2 domain, isothermal titration calorimetry. Conditions: ITC. The protocol: SLFpYEEI and FKpYEEI are bifunctional molecules that can bind FKBP12 and FKBP52 as well as the Fyn SH2 domain (FIG. 2). The binding constants (Kd values) of the bifunctional molecules for the three proteins were measured using isothermal titration calorimetry (ITC) (Table 1).
FIG. 6 is a graph of the competition binding curves for the Fyn SH2 domain and FKpYEEI as well as the Fyn SH2 domain and the peptide pYEEI in the absence and the presence of FKBP52. Fyn SH2 domain was incubated with peptide beads and increasing concentrations of FKpYEEI in the absence or presence of FKBP52. Specifically, in this assay, in 100 L binding reactions, radioactively labeled Fyn SH2 domain (200 nM) was incubated with 7.5 L of a 1:1 pYEEI bead slurry. Increasing concentrations of FKpYEEI or pYEEI (0.1-20.0 M) were added in the presence or absence of FKBP52 (4.5 M). The binding reactions were rotated at room temperature for 2 hours, centrifuged and analysed as described above. Half maximal binding (IC50) is observed at 750 riM FKpYEEI in the absence of FKBP52. […] Using ITC, the binding constant (Kd) for Fyn SH2 domain binding to the FKpYEEI-FKBP52 complex was determined.
FIG. 13 is a graph of the competition binding curves for the Fyn SH2 domain and SLFpYEEI in the absence and the presence of FKBP12. Fyn SH2 domain was incubated with increasing concentrations of SLFpYEEI in the absence or presence of FKBP12. In this assay, in 100 L binding reactions, radioactively labeled Fyn SH2 domain (200 nM) was incubated with 7.5 L of a 1:1 pYEEI bead slurry. Increasing concentrations of SLFpYEEI (0.1-20.0 M) were added in the presence or absence of FKBP12 (20 M). The binding reactions were rotated at room temperature for 2 hours, centrifuged and analysed as described above. […] This effect was confirmed by ITC.
A general note: ITC needs no label: the signal is the heat of the interaction.

Where [3] appears, read: ligand alone, no presenter protein, read-out: Binding constant (Kd) for Fyn SH2 domain, free ligand.

T1 sequence (P06241 149-246 limits assumed): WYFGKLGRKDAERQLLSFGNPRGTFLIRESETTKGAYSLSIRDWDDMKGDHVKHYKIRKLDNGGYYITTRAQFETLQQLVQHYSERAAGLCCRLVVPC

Usually Kd stands for the concentration at which binding is half-saturated. In the case of `CC[C@H](C)[C@H](NC(=O)[C@H](CCC(=O)O)NC(=O)[C@H](CCC(=O)O)NC(=O)[C@H](Cc1ccc(OP(=O)(O)O)cc1)NC(=O)COc1cccc([C@@H](CCc2ccc(OC)c(OC)c2)OC(=O)[C@@H]2CCCCN2C(=O)C(=O)C(C)(C)CC)c1)C(=O)O` [SLFpYEEI], the “Effect of FKBP12 on affinity for the Fyn SH2 domain” value on Fyn SH2 domain [1] is “reduced affinity for the Fyn SH2 domain; also recorded: reduced binding”. Moreover, at Fyn SH2 domain [1] (IC50 with FKBP12 vs without), the “Factor of affinity reduction for the Fyn SH2 domain in complex with FKBP12” value is on record as “six”. For the same molecule, the Kd on Fyn SH2 domain [2] (setting [3]) stood at 183 nM.
With `CC[C@H](C)[C@H](NC(=O)[C@H](CCC(=O)O)NC(=O)[C@H](CCC(=O)O)NC(=O)[C@H](Cc1ccc(OP(=O)(O)O)cc1)NC(=O)OCC[C@@H]1/C=C(\C)C[C@H](C)C[C@H](OC)[C@H]2O[C@@](O)(C(=O)C(=O)N3CCCC[C@H]3C(=O)O[C@H](/C(C)=C/[C@@H]3CC[C@@H](O)[C@H](OC)C3)[C@H](C)[C@@H](O)CC1=O)[C@H](C)C[C@@H]2OC)C(=O)O` [FKpYEEI], the “Effect of FKBP12 on affinity for the Fyn SH2 domain” value on Fyn SH2 domain [1] was “does not enhance the binding affinity for the Fyn SH2 domain; also recorded: does not affect the affinity”. In addition, the “Effect of FKBP52 on affinity for the Fyn SH2 domain” value on Fyn SH2 domain [1] (1.0 M ligand plus FKBP52 0.25-4.0 M) was “higher affinity for the Fyn SH2 domain”. Further, the “Enhancement of affinity in the context of FKBP52 in respect to pYEEI” value at Fyn SH2 domain [1] (IC50 of FKpYEEI plus FKBP52 vs IC50 of pYEEI) amounted to 4.4 fold. In addition, the “Factor of affinity enhancement for the Fyn SH2 domain in complex with FKBP52” value on Fyn SH2 domain [1] (IC50 with FKBP52 vs without) is listed as “three”. Besides, the Kd came to 130 nM at Fyn SH2 domain [2] (in complex with FKBP52, read-out: Kd for Fyn SH2 domain binding to the FKpYEEI-FKBP52 complex) and 520 nM at Fyn SH2 domain [2] (setting [3]).
